The test system of assay [1] is Wistar rats showing proteinuria. Put plainly: Effect of treatment on proteinuria (urinary protein by sulfosalicylic acid turbidimetry) in BSA-injected rats. Type of assay: in vivo, rat. The settings on record: BSA 350 mg/kg i.v., intragastric twice daily, yeast compositions 1.0 ml/100 g, pednisone 0.25 mg/100 g. On the procedure: (§1) The activated yeast compositions used in the following examples were prepared as described above, using Saccharomyces cerevisiae Hansen AS2.502, cultured in the presence of an alternating electric field having the electric field frequency and field strength exemplified in the parentheses following the recommended ranges listed in Section IV, supra. Control (i.e., untreated) yeast compositions were those prepared in the same manner as described in Section VI, supra, except that the yeast cells were cultured in the absence of EMFs. Unless otherwise specified, all compositions of interest were administered to the animals by intragastric feeding.
To test the ability of the activated yeast compositions to reduce the level of urinary protein, sixty healthy Wistar rats with average weight of about 200-220 g (4-7 months old, half of them male and the other half female) were chosen and males and females were kept in separate cages. […] Urine samples were collected from the fine cancellated base of metabolic cages, and the amount of protein in the samples was determined by […]. […]
The amount of urinary protein was determined by sulfosalicylic acid turbidimetry. The volume of each urine sample was first measured (ml). […] Ten minutes later, the absorption of the sample test tube was measured at 620 nm against the control tube. […]

Assay [2] has the same test system. Put plainly: Effect of treatment on serum protein (biuret method) in BSA-injected rats. In kind it is in vivo, rat. The settings on record: Wistar rats prepared as in Example 1; intragastric twice daily for six weeks; yeast compositions 1.0 ml/100 g, pednisone 0.2 mg/100 g. As for the experimental part: as §1, with “feeding. […]” for “feeding.”
Subsequently, a composition of interest was administered twice daily to each of the four groups of rats for six weeks. […] The amount of protein in the supernatant (serum protein) was determined.
To determine the amount of serum protein, 50 μl of the supernatant and standard serum protein were added into two separate tubes. […] The mixtures were placed in water bath at 37° C. for 10 minutes and measured for absorption at 546 nm. The concentration of serum protein was calculated according to the following formula: [Serum Protein]=[absorption for the testing sample/absorption for the standard]×[standard serum protein](g/dl).

SMILES strings stand for the structures.

As to `C[C@]12C=CC(=O)C=C1CC[C@@H]1[C@@H]2C(=O)C[C@@]2(C)[C@H]1CC[C@]2(O)C(=O)CO` [Pednisone, pednisone (metacortandiacin)], the “Urinary Protein (mg in 100 ml urine sample) in a 24-hour Period, 8-Week Treatment” value in assay [1] (last day of eighth week) is 4.22 ± 1.34 mg in 100 ml urine sample. Also, the “Urinary Protein (mg in 100 ml urine sample) in a 24-hour Period, 4-Week Treatment” value in assay [1] (last day of fourth week) is recorded as 4.57 ± 1.42 mg in 100 ml urine sample. The “Serum Protein” value in assay [2] worked out at 6.41 ± 3.32 g/dL.

Values taken from patent publication US20050106168A1, “Methods and compositions for treating nephrotic syndrome” (priority 2003, published 2005).
